Reference: patent publication US8628752B2, “Methods of identifying HSP90 inhibitors with less ocular toxicity” (Synta Pharmaceuticals Corp., priority 2011, dated 2014)
Values joined by “and” are separate entries in the source; they are usually repeats but may differ in a detail not shown here. Equal entries are not always repeated. “Also recorded” adds a separate entry of the source. Where two headings read alike, the source gives them in different places.

Columns and labels:
photoreceptors [1] = conditions: rat, in vivo, iv; for Incidences (#affected/total): male, Sprague-Dawley, 2 days
[2] = for Elimination from the retina (in words) / Retina/plasma (R/P) ratio (in words): rats; for Retina/plasma (R/P) ratio (in words): 6 h post-dose
in vivo [3] = conditions: male, Sprague-Dawley, rat, iv; for Kp at 0.5 h / Kp at 6 h: in vivo
HER2 in BT-474 cells = assay: HER2 degradation assay (anti-HER2 FITC flow cytometry); type: cell-based; conditions: 24 h treatment
Method: HER2 positive cells were determined using anti-HER2 conjugated FITC (BD, 540553) according to manufacturer's instruction (BD Biosciences). 0.2×10^6 BT-474 cells were plated in 12-well culture plates in Dulbecco's Modified Eagle's Medium containing 10% fetal bovine serum and 1.5 g/L sodium bicarbonate. Cells were treated with the indicated compounds over a 10-1000 nM concentration range for 24 h. Cells were collected and stained with a FITC-conjugated anti-HER2 antibody for 30 min at room temperature. HER2-positive cells (fluorescence intensity) were determined by flow cytometry (excitation at 495 nm and emission at 529 nm) using a Becton Dickinson LSRII equipped with CellQuest Pro software. […]

in vivo [4] = conditions: male, Sprague-Dawley, rat, iv
photoreceptors [5] = assay: Photoreceptor degeneration/apoptosis in rat eyes (H&E, TUNEL) after i.v. dosing; conditions: for Photoreceptor degeneration (in words) / Ocular toxicity / photoreceptor injury in rats (in words): rats; for Ocular toxicity / photoreceptor injury in rats (in words): short-term studies
[6] = phase I trials, clinical reports, cited from earlier work
[7] = Ocular adverse events in clinical studies with ganetespib; type: in vivo, humans
retina [8] = assay: Ganetespib 3-month toxicology study, ocular histopathology; type: in vivo, cynomolgus monkeys; conditions: Monkeys (M + F), max. dose 7 mg/kg, 1 hour i.v. infusion, Days 1 & 15 of four 21-day cycles
retina [9] = assay: as above; type: in vivo; conditions: SD rats (M + F), max. dose 100 mg/kg, 1 hour i.v. infusion, Days 1 & 15 of four 21-day cycles
retina [10] = conditions: repeated doses; cited from earlier work
[11] = SD rats, all testing doses of the compound, i.v.
[12] = male, Sprague-Dawley, rat, in vivo, iv, 2 days
[13] = male, Sprague-Dawley, rat, in vivo, iv
[14] = male, Sprague-Dawley, rat, in vivo, iv, 0.5 h
[15] = male, Sprague-Dawley, rat, in vivo, iv, 6 h
[16] = SD rats, i.v., between 0.5 and 6 h post-dose
[17] = SD rats, i.v., Day 2, 0.5 h, mg/kg: AUY922 10, 17-DMAG 20, Compound 1 50, 17-AAG 80
[18] = SD rats, i.v., Day 2, 6 h, mg/kg: AUY922 10, 17-DMAG 20, Compound 1 50, 17-AAG 80
[19] = SD rats, 8, 20, 60, 100/80 mg/kg/d x2, i.v.

## CC(C)c1cc(C(=O)N2Cc3ccc(CN4CCN(C)CC4)cc3C2)c(O)cc1O [AT-13387]
[11]
  Mortality (in-house study): 0/9
[12]
  Other findings (in-house study): ↓ Body weight gain
Photoreceptors [1]; 3 mg/kg/day
  Incidences (#affected/total): 6/6
Photoreceptors [1]; 30 mg/kg/day
  Incidences (#affected/total): 0/3
Photoreceptors [1]; 60 mg/kg/day
  Incidences (#affected/total): 2/3

## CCNC(=O)c1noc(-c2cc(C(C)C)c(O)cc2O)c1-c1ccc(CN2CCOCC2)cc1 [AUY-922]
SD rats, 3-60 mg/kg i.v., in 2-3 days post-dose
  Toxicity: mortality: No mortality
[11]
  Mortality (in-house study): 0/12
[12]
  Other findings (in-house study): tail edema
rat, in vivo, iv
  Other findings (in-house study): ↓ Body weight gain)
[2]; [13]
  Retina % remain at 6 h of drug present at 0.5 h: (53.5) %
  Retina %↓ 0.5-6 h (drug eliminated from retina): 46.5%
[2]; [14]
  Plasma concentration: 1120 nM
  Retina concentration: 4.75 µM
[2]; [15]
  Plasma concentration: 15.4 nM
  Retina concentration: 2.54 µM
Photoreceptors [1]; 3 mg/kg/day
  Incidences (#affected/total): 0/3
Photoreceptors [1]; 60 mg/kg/day
  Incidences (#affected/total): 3/3
Photoreceptors [1]
  Ocular toxicity / photoreceptor injury in rats (in words): most severe ocular effects
  TUNEL: +-++
In vivo [3]
  Kp at 0.5 h: 4.24
  Kp at 6 h: 165
HER2 in BT-474 cells
  IC50: < 0.03 µM
HER2 in BT-474 cells; Homo sapiens, BT-474, 24 h
  IC50: 0.03 µM

## CC(C)c1cc(-c2nnc(S)n2-c2ccc3c(ccn3C)c2)c(O)cc1O [Compound 1, 4-isopropyl-6-(5-mercapto-4-(1-methyl-1H-indol-5-yl)-4H-1,2,4-triazol-3-yl)benzene-1,3-diol]
[12]
  Mortality (in-house study): 0/15
rat, in vivo, 100 mg/kg
  Other findings (in-house study): (ECG change
In vivo [4]
  MTD: 100 mg/kg
[2]; [16]
  Retina %↓ 0.5-6 h (drug eliminated from retina): 78.5%
[2]; SD rats, i.v., between 0.5 and 6 h post-dose, listed as compound 1
  Retina %↓ 0.5-6 h (drug eliminated from retina): 79%
In vivo [3]; cerebrospinal fluid
  concentration at 0.5 h: 19.4 nM
In vivo [3]; plasma
  concentration at 0.5 h: 19500 nM
  concentration at 6 h: 104 nM
In vivo [3]; retina
  concentration at 0.5 h: 10400 nM
  concentration at 6 h: 2240 nM
HER2 in BT-474 cells; Homo sapiens, BT-474, 24 h
  IC50: 0.06 µM
Photoreceptors [5]; SD rats, 10 mg/kg/d x2, i.v.
  Incidences (#affected/total): 0/3
  Severity (TUNEL + area & density): (−) ((−) ≦ 20 cells/section)
Photoreceptors [5]; SD rats, 20 mg/kg/d x2, i.v.
  Incidences (#affected/total): 0/3
  Severity (TUNEL + area & density): (−) ((−) ≦ 20 cells/section)
Photoreceptors [5]; SD rats, 30 mg/kg/d x2, i.v.
  Incidences (#affected/total): 0/3
  Severity (TUNEL + area & density): (−) (1/3±, 22 ((−) ≦ 20 cells/section)
Photoreceptors [5]; SD rats, 50 mg/kg i.v.
  Photoreceptor degeneration/apoptosis: (±)
Photoreceptors [5]; SD rats, 50 mg/kg/d x2, i.v.
  Incidences (#affected/total): 3/3
  Severity (TUNEL + area & density): (±) ((±) 21-30 cells/section)
Photoreceptors [5]; SD rats, 100 mg/kg/d x2, i.v.
  Incidences (#affected/total): 3/3
Photoreceptors [5]; SD rats, 10, 20, 30 mg/kg i.v.
  Photoreceptor degeneration/apoptosis: (−) ((−) ≦20 cells/section)
Photoreceptors [5]; doses active in animal tumor models
  Photoreceptor degeneration (in words): Photoreceptor degeneration was not observed
Photoreceptors [5]; higher dose(s)
  Photoreceptor degeneration (in words): only minimal degeneration; also recorded: only minimal-mild changes
Photoreceptors [5]; i.v.
  Ocular toxicity / photoreceptor injury in rats (in words): Mild or no ocular toxicity

## C=CCNC1=C2C[C@@H](C)C[C@H](OC)[C@H](O)[C@@H](C)/C=C(\C)[C@H](OC(N)=O)[C@@H](OC)/C=C\C=C(/C)C(=O)NC(=CC1=O)C2=O [Compound 17-AAG]
SD rats, 100 mg/kg in 5 min
  Mortality (in-house study): 1/3; 100 mg/kg in 5 min,
SD rats, 120 mg/kg in 5 min
  Mortality (in-house study): 1/1: 120 mg/kg in 5 min.
SD rats, i.v.
  Toxicity: Mortality (dose): 100 mg/kg
[6]
  Visual adverse effects in clinical trials / clinical subjects: absence of clinically-reported visual changes
[2]; [17]
  CSF concentration: 0.434 µM
  Plasma concentration: 26500 nM
  R/P ratio (retina/plasma): 1.70
  Retina concentration: 45.1 µM
[2]; [18]
  CSF concentration: 0.00433 µM
  Plasma concentration: 262 nM
  R/P ratio (retina/plasma): 9.58
  Retina concentration: 2.51 µM
[2]; [16]
  Retina % remain at 6 h of drug present at 0.5 h: (5.6) %
  Retina %↓ 0.5-6 h (drug eliminated from retina): 94% and 94.4%
[2]
  Elimination from the retina (in words): more rapidly eliminated from the retina
  Retina/plasma (R/P) ratio (in words): lower R/P ratios; also recorded: low R/P ratio
HER2 in BT-474 cells
  IC50: 0.1 to 0.15 µM
Photoreceptors [5]; SD rats, 8, 20, 60 mg/kg i.v.
  Photoreceptor degeneration/apoptosis: (−) ((−) ≦20 cells/section)
Photoreceptors [5]; [19]
  Incidences (#affected/total): 0/10
  Severity (TUNEL + area & density): (−) ((−) ≦ 20 cells/section)
Photoreceptors [5]; SD rats, 80 (100) mg/kg i.v.
  Photoreceptor degeneration/apoptosis: (−) ((−) ≦20 cells/section)
Photoreceptors [5]; SD rats, i.v., mg/kg: AUY922 10, 17-DMAG 20, Compound 1 50, 17-AAG 80
  TUNEL: (−) ((−) ≦ 20 cells/section)
Photoreceptors [5]; i.v.
  Ocular toxicity / photoreceptor injury in rats (in words): Mild or no ocular toxicity; also recorded: absence of ocular effects; also recorded: did not produce detectable photoreceptor injury; also recorded: did not induce ocular toxicity in rats

## CO[C@H]1/C=C\C=C(/C)C(=O)NC2=CC(=O)C(NCCN(C)C)=C(C[C@@H](C)C[C@H](OC)[C@H](O)[C@@H](C)/C=C(\C)[C@@H]1OC(N)=O)C2=O [Compound 17-DMAG]
SD rats, 25 mg/kg/d x3, 72 hrs
  Mortality (in-house study): 3/3 @ 25
SD rats, i.v., x 3 days
  Toxicity: Mortality (dose): 25 mg/kg/dx
[6]; listed as alvespimycin
  Visual adverse effects in clinical trials / clinical subjects: Visual symptoms, including blurred vision
[2]; [17]
  CSF concentration: 0.0799 µM
  Plasma concentration: 4710 nM
  Retina concentration: 32.0 µM
[2]; [18]
  CSF concentration: 0.00376 µM
  Plasma concentration: 317 nM
  Retina concentration: 16.2 µM
[2]; [16]
  Retina %↓ 0.5-6 h (drug eliminated from retina): 49.4%
[2]
  Elimination from the retina (in words): longer retention time; also recorded: slow elimination rate
  Retina/plasma (R/P) ratio (in words): high retina/plasma (R/P) ratio
In vivo [3]
  Kp at 0.5 h: 6.79
  Kp at 6 h: 51.1
HER2 in BT-474 cells; Homo sapiens
  IC50: 0.06 µM
Photoreceptors [5]; SD rats, 10 mg/kg/d x2, i.v.
  Incidences (#affected/total): 3/3
Photoreceptors [5]; SD rats, 20, 25 mg/kg/d x2, i.v.
  Incidences (#affected/total): 6/6
Photoreceptors [5]; i.v.
  Ocular toxicity / photoreceptor injury in rats (in words): marked photoreceptor cell death; also recorded: produced ocular toxicity

## CC(C)c1cc(-c2n[nH]c(=O)n2-c2ccc3c(ccn3C)c2)c(O)cc1O [Ganetespib, 3-(2,4-dihydroxy-5-isopropyl-phenyl)-4-(1-methyl-indol-5-yl)-5-hydroxy-[1,2,4]triazole]
[7]; clinical studies with ganetespib
  Severity of ocular toxicities in clinical studies (in words): absence of severe common ocular toxicities
[7]; n = 390, number (%)
  Chromatopsia, all adverse events, Grade 1: 1 (<1%)
  Chromatopsia, related adverse events, Grade 1: 1 (<1%)
  Difficulty with night vision, all adverse events, Grade 1: 1 (<1%)
  Vision blurred, all adverse events, Grade 1: 11 (3%)
  Vision blurred, all adverse events, Grade 2: 2 (<1%)
  Vision blurred, related adverse events, Grade 1: 4 (1%)
  Visual acuity reduced, all adverse events, Grade 1: 2 (<1%)
  Visual acuity reduced, related adverse events, Grade 1: 1 (<1%)
  Visual impairment, all adverse events, Grade 1: 5 (1%)
  Visual impairment, related adverse events, Grade 1: 2 (<1%)
[2]; SD rats, 20 mg/kg i.v., Cmax & AUCt > human dose
  Toxicity: exposure compared with human dose: Cmax & AUCt >
[2]
  Elimination from the retina (in words): more rapidly eliminated from the retina
  Retina/plasma (R/P) ratio (in words): lower R/P ratios
Retina [8]
  Ocular histopathology evaluation: No changes
HER2 in BT-474 cells; Homo sapiens, BT-474, 24 h
  IC50: 0.03 µM
Photoreceptors [5]; SD rats, 20 mg/kg i.v.
  Photoreceptor degeneration/apoptosis: (−) ((−) ≦20 cells/section)
Photoreceptors [5]; i.v.
  Ocular toxicity / photoreceptor injury in rats (in words): absence of ocular effects; also recorded: did not induce ocular toxicity
Retina [9]
  Ocular histopathology evaluation: No changes

## CC1(C)CC(=O)c2c(C(F)(F)F)nn(-c3ccc(C(N)=O)c(N[C@H]4CC[C@H](OC(=O)CN)CC4)c3)c2C1 [PF-04929113]
Retina [10]
  Retinal injury in dogs: photoreceptor degeneration and/or cell death
